For this series, the system named is adult southern chinch bugs. Nature of the series: LC-50 of bifenthrin on chinch bug populations, dipped St. Augustine grass stolons in Petri dishes. Conditions: about 24 hours at about 28° C. The format is in vivo, Blissus insularis. An excerpt:
Developing Chinch Bug Resistance to Bifenthrin (Synthetic Pyrethroid) Serial dilutions of bifenthrin were made from Talstar Flowable 7.9% AI (FMC, Philadelphia, Pa.). Freshly harvested St. Augustine grass stolons (about 10 cm long) were dipped into the dilutions and allowed to air dry. The stolons were placed individually into Petri dishes (15 cm diameter) containing moist filter paper to maintain high humidity. Twenty adult southern chinch bugs were placed into each Petri dish and held for about 24 hours at about 28° C. Sample sizes of adults tested ranged from 200 (20 each at 10 dose levels) to 480 (20 each at 24 dose levels) for each location to estimate LC-50 for that location. Different numbers of adults tested per location depended on availability of adults plus variability noted in testing. Since the objective of this study was to estimate LC-50 values, doses expected to give 25 to 75% mortality for best LC-50 were used. Mortality was defined as virtually no movement by an adult during a 5 minute observation period through a 5× large magnifying lens. The no movement criterion was used to avoid ambiguities of comatose, unable to stand, moribund, etc.

In turn, `Cc1c(COC(=O)[C@@H]2[C@H](/C=C(\Cl)C(F)(F)F)C2(C)C)cccc1-c1ccccc1` (racemic) [bifenthrin] gave an LC-50 (chinch bugs from Belle Glade, control problem in the field: No) of 2.6 ppm; an LC-50 (chinch bugs from Clermont, control problem in the field: Yes) of 78.7 ppm; an LC-50 (chinch bugs from Daytona Beach, control problem in the field: Yes) of 243.3 ppm; an LC-50 (chinch bugs from Fort Pierce, control problem in the field: No) of 2.8 ppm; an LC-50 (chinch bugs from Gainesville, control problem in the field: No) of 10.6 ppm; an LC-50 (chinch bugs from Kendall Lakes, control problem in the field: No) of 9.3 ppm. Besides, the LC-50 is, setting by setting: (chinch bugs from Key Largo, control problem in the field: Yes) 148.2 ppm; (chinch bugs from Lithia, control problem in the field: No) 5.4 ppm; (chinch bugs from Orlando, control problem in the field: No) 2.3 ppm; (chinch bugs from Ormond Beach, control problem in the field: Yes) 698.8 ppm; (chinch bugs from Palm Coast, control problem in the field: Yes) 1,693 ppm; (chinch bugs from Palmetto, control problem in the field: Yes) 493.6 ppm. In addition, the LC-50 is on record as 7.3 ppm (chinch bugs from Royal Palm Beach, control problem in the field: No); 89.2 ppm (chinch bugs from Sarasota, control problem in the field: Yes); 159.3 ppm (chinch bugs from Spring Hill, control problem in the field: Yes); 9.7 ppm (chinch bugs from Tamarac, control problem in the field: No).

Values taken from patent publication US20080287425A1, “Method for Controlling Chinch Bugs” (FMC CORPORATION, priority 2005, published 2008).
